In paper PMC9333195, “Discovery of 2-Phenylquinoline-4-Carboxylic Acid Derivatives as Novel Histone Deacetylase Inhibitors” (Frontiers in Chemistry, 2022):

How the values were obtained:
[1] = tested on: Hela nucleus extract containing a mixture of HDAC isoforms; test: In vitro HDAC inhibitory assay, HeLa cell nuclear extract screening at 2 µM; type: biochemical; details: 2.0 µM compound, mean of three experiments
Description: The HDAC enzyme inhibitory activities of synthesized compounds were evaluated against Hela nucleus extract containing a mixture of HDAC isoforms. Percentage inhibitory rate (PIR) was calculated to determine the activity of tested compounds (Table 1).
All HDAC enzymes were purchased from BPS Bioscience. […] The reaction was terminated by adding 100 μl of imaging agent containing trypsin and trichostatin A (TSA). After standing for 20 min, the fluorescence intensity was measured at the excitation and emission wavelengths of 360 and 460 nm with a microplate reader. The inhibition rate was calculated from the fluorescence intensity readings of the test wells relative to the control wells, and the IC50 curve and value were determined by GraphPad Prism 6.0 software.

[2] = tested on: K562 cells; test: CCK-8 antiproliferative assay, K562; details: Homo sapiens; for IC50: K562, 72 h, read-out: Antiproliferative IC50 K562; for inhibition at 2 µM: K562, read-out: K562 percentage inhibitory rate
Description: (§1) The proliferation of cancer cells was tested by CCK-8 assay. Briefly, cells were seeded in a 96-well plate with about 5 × 10^3 cells in each well. In the K652 cell screening, cells were treated with 2.0 μM of tested compounds. […] The light absorbance at 450 nm was measured by using an Opsys microplate reader (Dynex Technologies, Chantilly, VA, United States).

[3] = tested on: U266; test: CCK-8 antiproliferative assay, U266; details: Homo sapiens, U-266, 72 h, read-out: Antiproliferative IC50 U266
Description: (§2) The proliferation of cancer cells was tested by CCK-8 assay. Briefly, cells were seeded in a 96-well plate with about 5 × 10^3 cells in each well. […] The light absorbance at 450 nm was measured by using an Opsys microplate reader (Dynex Technologies, Chantilly, VA, United States).

[4] = tested on: U937; test: CCK-8 antiproliferative assay, U937; details: Homo sapiens, U-937, 72 h, read-out: Antiproliferative IC50 U937
Description: as §1

[5] = tested on: Fadu; test: CCK-8 antiproliferative assay, Fadu; details: Homo sapiens, 72 h, read-out: Antiproliferative IC50 Fadu
Description: as §1

[6] = tested on: A549; test: CCK-8 antiproliferative assay, A549; details: Homo sapiens, A549, 72 h, read-out: Antiproliferative IC50 A549
Description: as §2

[7] = tested on: MCF-7; test: CCK-8 antiproliferative assay, MCF-7; details: Homo sapiens, MCF7, 72 h, read-out: Antiproliferative IC50 MCF-7
Description: as §2

[8] = tested on: A2780; test: CCK-8 antiproliferative assay, A2780; details: Homo sapiens, A2780, 72 h, read-out: Antiproliferative IC50 A2780
Description: as §2

[9] = tested on: HepG2; test: CCK-8 antiproliferative assay, HepG2; details: Homo sapiens, HepG2, 72 h, read-out: Antiproliferative IC50 HepG2
Description: as §1

[10] = tested on: MDA-MB-231; test: CCK-8 antiproliferative assay, MDA-MB-231; details: Homo sapiens, MDA-MB-231, 72 h, read-out: Antiproliferative IC50 MDA-MB-231
Description: as §1

[11] = tested on: MDA-MB-468; test: CCK-8 antiproliferative assay, MDA-MB-468; details: Homo sapiens, MDA-MB-468, 72 h, read-out: Antiproliferative IC50 MDA-MB-468
Description: as §2

[12] = target: HDAC1 (Homo sapiens, UniProt Q13547); test: In vitro HDAC inhibitory assay, recombinant HDAC1
Sequence of HDAC1 (Q13547 whole entry): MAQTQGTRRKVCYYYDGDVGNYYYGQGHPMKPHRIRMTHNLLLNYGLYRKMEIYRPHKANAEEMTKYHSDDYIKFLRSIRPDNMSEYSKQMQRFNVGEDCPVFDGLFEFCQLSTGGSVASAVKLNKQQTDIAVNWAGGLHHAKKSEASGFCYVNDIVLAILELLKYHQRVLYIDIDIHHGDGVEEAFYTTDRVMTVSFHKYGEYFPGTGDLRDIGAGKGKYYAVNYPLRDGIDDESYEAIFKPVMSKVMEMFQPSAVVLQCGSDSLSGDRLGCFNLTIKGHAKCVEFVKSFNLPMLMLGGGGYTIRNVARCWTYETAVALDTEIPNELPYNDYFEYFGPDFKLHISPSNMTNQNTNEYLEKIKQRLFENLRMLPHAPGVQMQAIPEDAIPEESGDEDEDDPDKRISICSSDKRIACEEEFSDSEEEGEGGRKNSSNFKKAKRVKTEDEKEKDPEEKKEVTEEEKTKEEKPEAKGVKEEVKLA

[13] = target: HDAC2 (Homo sapiens, UniProt Q92769); test: In vitro HDAC inhibitory assay, recombinant HDAC2
Sequence of HDAC2 (Q92769 whole entry): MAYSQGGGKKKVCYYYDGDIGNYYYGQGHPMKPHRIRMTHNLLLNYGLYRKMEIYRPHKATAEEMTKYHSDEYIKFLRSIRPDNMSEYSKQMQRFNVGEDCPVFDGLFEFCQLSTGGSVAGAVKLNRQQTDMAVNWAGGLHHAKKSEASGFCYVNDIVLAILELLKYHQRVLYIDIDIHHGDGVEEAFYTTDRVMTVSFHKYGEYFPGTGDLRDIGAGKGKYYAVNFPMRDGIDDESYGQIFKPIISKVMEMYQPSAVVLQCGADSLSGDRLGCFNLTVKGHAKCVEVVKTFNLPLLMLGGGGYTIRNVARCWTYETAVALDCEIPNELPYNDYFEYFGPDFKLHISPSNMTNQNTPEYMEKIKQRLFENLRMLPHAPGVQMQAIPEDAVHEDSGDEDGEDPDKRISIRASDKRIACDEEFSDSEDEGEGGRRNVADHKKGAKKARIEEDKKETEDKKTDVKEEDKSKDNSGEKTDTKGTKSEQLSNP

[14] = target: HDAC3 (Homo sapiens, UniProt O15379); test: In vitro HDAC inhibitory assay, recombinant HDAC3
Sequence of HDAC3 (O15379 whole entry): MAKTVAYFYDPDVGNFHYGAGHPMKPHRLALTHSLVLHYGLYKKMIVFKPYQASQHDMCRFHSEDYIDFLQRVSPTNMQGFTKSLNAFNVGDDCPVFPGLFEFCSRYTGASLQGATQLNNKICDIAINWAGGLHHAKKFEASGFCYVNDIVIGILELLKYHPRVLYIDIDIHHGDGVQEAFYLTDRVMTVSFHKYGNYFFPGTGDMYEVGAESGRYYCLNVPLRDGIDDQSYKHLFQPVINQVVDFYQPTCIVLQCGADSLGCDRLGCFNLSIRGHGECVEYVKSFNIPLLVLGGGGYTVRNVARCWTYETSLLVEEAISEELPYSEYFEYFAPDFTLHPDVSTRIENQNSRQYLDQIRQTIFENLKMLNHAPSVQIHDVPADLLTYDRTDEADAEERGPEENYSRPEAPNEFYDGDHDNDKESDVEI
Sequence of HDAC3 (Q9Y618 395-489 partner limits assumed): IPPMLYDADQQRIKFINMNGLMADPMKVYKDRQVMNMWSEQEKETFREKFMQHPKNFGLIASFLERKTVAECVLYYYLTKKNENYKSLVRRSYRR

[15] = target: T1, HDAC6 (Homo sapiens, UniProt Q9UBN7); test: In vitro HDAC inhibitory assay, recombinant HDAC6
T1 sequence (Q9UBN7 1-1215): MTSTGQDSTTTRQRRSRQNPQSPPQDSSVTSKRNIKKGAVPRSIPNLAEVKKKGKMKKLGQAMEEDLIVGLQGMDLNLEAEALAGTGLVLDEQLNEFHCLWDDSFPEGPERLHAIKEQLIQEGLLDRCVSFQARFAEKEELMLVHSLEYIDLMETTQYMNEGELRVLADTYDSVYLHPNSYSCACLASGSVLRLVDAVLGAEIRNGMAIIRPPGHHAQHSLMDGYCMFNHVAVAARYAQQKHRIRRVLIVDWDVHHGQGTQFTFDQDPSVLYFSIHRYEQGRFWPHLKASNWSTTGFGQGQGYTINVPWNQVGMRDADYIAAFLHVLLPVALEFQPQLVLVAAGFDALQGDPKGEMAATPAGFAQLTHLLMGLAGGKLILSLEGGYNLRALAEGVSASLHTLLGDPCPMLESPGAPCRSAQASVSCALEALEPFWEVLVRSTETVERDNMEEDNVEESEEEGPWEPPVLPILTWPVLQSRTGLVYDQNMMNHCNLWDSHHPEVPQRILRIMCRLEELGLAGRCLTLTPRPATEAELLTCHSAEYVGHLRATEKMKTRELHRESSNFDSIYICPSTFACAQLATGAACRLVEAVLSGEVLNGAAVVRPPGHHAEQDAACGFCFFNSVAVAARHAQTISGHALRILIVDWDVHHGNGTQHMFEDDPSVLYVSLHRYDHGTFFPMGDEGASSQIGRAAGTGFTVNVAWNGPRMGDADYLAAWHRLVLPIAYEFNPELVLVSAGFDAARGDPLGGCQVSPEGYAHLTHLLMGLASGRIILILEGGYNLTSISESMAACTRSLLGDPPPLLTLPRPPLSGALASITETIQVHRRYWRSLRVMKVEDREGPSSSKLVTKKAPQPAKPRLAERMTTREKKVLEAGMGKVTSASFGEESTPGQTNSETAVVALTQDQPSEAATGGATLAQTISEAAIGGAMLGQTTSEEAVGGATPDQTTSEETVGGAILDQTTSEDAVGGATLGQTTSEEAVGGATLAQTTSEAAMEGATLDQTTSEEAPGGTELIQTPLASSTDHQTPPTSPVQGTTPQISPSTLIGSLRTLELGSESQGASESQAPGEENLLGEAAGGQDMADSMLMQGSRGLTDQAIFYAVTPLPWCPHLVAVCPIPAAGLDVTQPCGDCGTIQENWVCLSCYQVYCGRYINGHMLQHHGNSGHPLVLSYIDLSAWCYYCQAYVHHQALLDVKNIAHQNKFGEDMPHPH

[16] = tested on: K562 cells; test: Cell cycle analysis by flow cytometry (PI staining); type: cell-based; details: 24 h; for G2/M phase ratio of K562 cells: control 3.44%, third value in Figure 3; for phase of induced cell cycle arrest: K562 cells, 1 and 2 µM
Description: Deregulation of the cell cycle divided into G0/G1 phase, S phase, and G2/M phase is one of the most frequent alterations during cancer development. Thus, the cell cycle analysis is usually performed in the anticancer evaluation.
After treatment, cells were collected and fixed with 70% pre-cold ethanol in PBS and stored at −20°C overnight. […] Finally, DNA content was measured by flow cytometry (FACSAriaIII, Becton Dickinson, United States). The data was analyzed and fitted by ModFit software.

[17] = tested on: K562 cells; test: Cell apoptosis analysis by flow cytometry (Annexin V-BV421 / 7-AAD); details: 24 h, control 1.14%
Description: Cells were incubated with Annexin V-BV421(Becton Dickinson, United States) and 7-AAD (Becton Dickinson, United States) double labeling for 30 min in the dark at room temperature and measured by flow cytometry (FACSAriaIII, Becton Dickinson, United States). The data was analyzed by using Flowjo-V10 software.

Row | SMILES | HDACs percentage inhibitory rate (PIR) [1] [%] | melting point [°C] | IC50 [2] [µM] | inhibition at 2 µM [2] [%] | IC50 [3] [µM] | IC50 [4] [µM] | IC50 [5] [µM] | IC50 [6] [µM] | IC50 [7] [µM] | IC50 [8] [µM] | IC50 [9] [µM] | IC50 [10] [µM] | IC50 [11] [µM] | IC50 [12] [µM] | IC50 [13] [µM] | IC50 [14] [µM] | IC50 [15] [µM] | phase of induced cell cycle arrest [16] | apoptotic cell proportion (apoptotic rate) ([17]; K562, 1 μM) [%] | apoptotic cell proportion (apoptotic rate) ([17]; K562, 2 μM) [%] | also measured
1 | CCCCNNC(=O)c1ccc(N2CCN(C(=O)c3cc(-c4ccc(-c5ccccc5)cc4)nc4ccccc34)CC2)cc1 [Compound D30, 4-(4-(2-([1,1′-Biphenyl]-4-yl)Quinoline-4-Carbonyl)Piperazin-1-yl)-N′-Butylbenzohydrazide] | 69.35 ± 3.44 | 225.3 to 227.3 | 7.66 ± 0.25 | 65.8 ± 2.95 | 3.68 ± 0.16 | 5.87 ± 0.24 | > 50 | > 50 | 18.8 ± 1.22 | > 50 | > 50 | > 50 | > 50 | 1.43 ± 0.02 | 8.13 ± 0.26 | 0.1 ± 0.003 | > 1000 |  |  |  | 
2 | O=C(NO)c1ccc(N2CCN(C(=O)c3cc(-c4ccc(-c5ccccc5)cc4)nc4ccccc34)CC2)cc1 [Compound D28, 4-(4-(2-([1,1′-Biphenyl]-4-yl)Quinoline-4-Carbonyl)Piperazin-1-yl)-N-Hydroxybenzamide] | 68.00 ± 2.49 |  | 1.02 ± 0.01 | 71.9 ± 2.32 | 1.08 ± 0.02 | 1.11 ± 0.03 | 3.22 ± 0.14 | 2.83 ± 0.17 | 5.66 ± 0.26 | 3.86 ± 0.29 | 2.16 ± 0.13 | 4.15 ± 0.22 | 2.89 ± 0.13 |  | > 1000 | 24.5 ± 1.24 | > 1000 | G2/M phase | 10.10 | 15.53 | G2/M phase ratio of K562 cells ([16]; 1 μM): 5.95%; G2/M phase ratio of K562 cells ([16]; 2 μM): 32.57%; apoptotic cell proportion (apoptotic rate) ([17]; K562, 4 μM): 27.92%
3 | CCCNNC(=O)c1ccc(N2CCN(C(=O)c3cc(-c4ccc(-c5ccccc5)cc4)nc4ccccc34)CC2)cc1 [Compound D29, 4-(4-(2-([1,1′-Biphenyl]-4-yl)Quinoline-4-Carbonyl)Piperazin-1-yl)-N′-Propylbenzohydrazide] | 62.14 ± 2.11 | 223.3 to 224.2 | 5.27 ± 0.14 | 62.4 ± 3.87 | 2.87 ± 0.11 | 4.22 ± 0.08 | > 50 | > 50 | 12.6 ± 0.97 | > 50 | > 50 | > 50 | > 50 | 32.6 ± 1.97 | 184 ± 4.32 | 0.477 ± 0.01 | > 1000 |  |  |  | 
4 | O=C(CCCCCCC(=O)Nc1ccccc1)NO [SAHA, Vorinostat, reference compound] |  |  | 1.55 ± 0.02 |  |  | 1.68 ± 0.03 | 2.17 ± 0.92 |  |  |  | 1.87 ± 0.11 |  |  |  |  |  |  | G0/G1 phase | 1.39 | 3.36 | apoptotic cell proportion (apoptotic rate) ([17]; K562, 4 μM): 19.75%
5 | O=C(NO)c1ccc(N2CCN(C(=O)c3cc(-c4ccc(NC(=O)c5ccc(F)cc5F)cc4)nc4ccccc34)CC2)cc1 [Compound D24, 2,4-Difluoro-N-(4-(4-(4-(4-(Hydroxycarbamoyl)Phenyl)Piperazine-1-Carbonyl)Quinolin-2-yl)Phenyl)Benzamide] | 66.16 ± 1.57 | 175.3 to 176.3 |  | 31.1 ± 0.54 |  |  |  |  |  |  |  |  |  |  |  |  |  |  |  |  | 
